The values below are quoted from earlier work in patent publication US20250195401A1, “COSMETIC COMPOSITION OF LIPOSOMES CONTAINING AN EXTRACT OF HAEMATOCOCCUS PLUVIALIS, TETRAHEXYLDECYL ASCORBATE AND ECTOIN” (IMAGE INTERNATIONAL MANUFACTURING, LLC, priority 2023, published 2025).

The conditions of the series: 6 h at 190° C.

Regarding `CC1=N[C@H](C(=O)O)CCN1` [Ectoine, (4S)-2-methyl-1,4,5,6-tetrahydropyrimidine-4-carboxylic acid], the “stability at high temperatures” value is “very stable”.
